The values that follow come from ChEMBL document CHEMBL4825689, “Halting colorectal cancer metastasis via novel dual nanomolar MMP-9/MAO-A quinoxaline-based inhibitors; design, synthesis, and evaluation” (Eur J Med Chem, 2021).

pIC50: −log10 of the molar value. Activity calls are given as the source filed them. The rule behind the calls is not given here.

For experiment [1], the system named is HCT-116. Description: Anticancer activity against human HCT-116 cells overexpressing MMP9/MAO-A by MTT assay. The class given is functional, cell-based.
The subject of the next experiment is Epithelial cell. Description: Cytotoxicity against albino rat epithelial rat by MTT assay. The class given is cell-based.
Experiment [2] has as its target T1, Matrix metalloproteinase-9 (Homo sapiens, UniProt P14780). Description: Inhibition of MMP9 (unknown origin) by colorimetric assay.
Experiment [3] is described as follows: Suppression of HIF1alpha expression in human HCT116 cells assessed as fold change by qRT-PCR analysis. The class given is functional, HCT-116.
Experiment [4] has as its target T2, Amine oxidase [flavin-containing] B (Homo sapiens, UniProt P27338).
T2 sequence (P27338 whole entry): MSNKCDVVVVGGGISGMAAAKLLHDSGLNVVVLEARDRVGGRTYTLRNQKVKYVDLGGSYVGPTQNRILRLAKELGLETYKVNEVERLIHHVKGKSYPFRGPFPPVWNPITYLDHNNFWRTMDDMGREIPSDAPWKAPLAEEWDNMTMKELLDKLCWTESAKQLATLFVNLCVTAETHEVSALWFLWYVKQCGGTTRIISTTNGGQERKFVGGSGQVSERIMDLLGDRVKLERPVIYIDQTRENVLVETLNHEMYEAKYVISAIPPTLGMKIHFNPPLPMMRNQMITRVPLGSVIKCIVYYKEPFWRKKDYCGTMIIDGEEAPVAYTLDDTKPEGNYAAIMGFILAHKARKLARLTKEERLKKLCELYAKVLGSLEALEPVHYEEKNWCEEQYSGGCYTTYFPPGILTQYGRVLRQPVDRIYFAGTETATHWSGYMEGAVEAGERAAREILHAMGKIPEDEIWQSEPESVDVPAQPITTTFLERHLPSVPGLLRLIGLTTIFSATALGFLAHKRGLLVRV
Description: Inhibition of MAO-B (unknown origin) by fluorometric assay.

In experiment [5] the target is T3, Amine oxidase [flavin-containing] A (Homo sapiens, UniProt P21397).
T3 sequence (P21397 whole entry): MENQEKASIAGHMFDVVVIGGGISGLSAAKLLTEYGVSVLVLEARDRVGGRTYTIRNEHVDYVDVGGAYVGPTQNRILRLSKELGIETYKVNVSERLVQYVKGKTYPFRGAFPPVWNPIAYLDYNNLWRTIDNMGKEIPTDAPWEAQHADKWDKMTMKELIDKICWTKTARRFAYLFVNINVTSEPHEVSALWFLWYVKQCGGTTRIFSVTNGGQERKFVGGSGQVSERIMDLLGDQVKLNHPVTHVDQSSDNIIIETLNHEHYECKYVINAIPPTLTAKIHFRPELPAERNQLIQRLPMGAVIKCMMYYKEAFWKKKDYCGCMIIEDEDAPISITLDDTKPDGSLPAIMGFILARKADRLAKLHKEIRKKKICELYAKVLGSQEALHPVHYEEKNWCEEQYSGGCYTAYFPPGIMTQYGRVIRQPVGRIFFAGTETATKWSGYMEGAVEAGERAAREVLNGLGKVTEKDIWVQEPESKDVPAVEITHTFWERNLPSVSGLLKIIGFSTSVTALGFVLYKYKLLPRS
Description: Inhibition of MAO-A (unknown origin) by multi-well spectrophotometry. The conditions noted are these: for pIC50: read-out: IC50.

A short description of experiment [6]: Selectivity index, ratio of IC50 for albino rat epithelial rat to IC50 for human HCT116 cells overexpressing MMP9/MAO-A.
Experiment [7] relates to HCT-116. Description: Anticancer activity against human HCT116 cells overexpressing MMP9 assessed as shrinkage incubated for 72 hrs by morphology alteration assay. It counts as functional, cell-based.
The species named for a further experiment is Homo sapiens. Description: Selectivity for MAO-B (unknown origin) to MAO-A (unknown origin).
Experiment [8] relates to HCT-116. Description: Inhibition of cell migration in human HCT116 cells assessed as suppression of cell migration incubated for 20 hrs by wound healing assay relative to control. It counts as functional.
In experiment [9] the target is T1, Matrix metalloproteinase-9. Description: Inhibition of MMP9 (unknown origin) at 1.3 uM by colorimetric assay relative to control.

T1 sequence (P14780 whole entry): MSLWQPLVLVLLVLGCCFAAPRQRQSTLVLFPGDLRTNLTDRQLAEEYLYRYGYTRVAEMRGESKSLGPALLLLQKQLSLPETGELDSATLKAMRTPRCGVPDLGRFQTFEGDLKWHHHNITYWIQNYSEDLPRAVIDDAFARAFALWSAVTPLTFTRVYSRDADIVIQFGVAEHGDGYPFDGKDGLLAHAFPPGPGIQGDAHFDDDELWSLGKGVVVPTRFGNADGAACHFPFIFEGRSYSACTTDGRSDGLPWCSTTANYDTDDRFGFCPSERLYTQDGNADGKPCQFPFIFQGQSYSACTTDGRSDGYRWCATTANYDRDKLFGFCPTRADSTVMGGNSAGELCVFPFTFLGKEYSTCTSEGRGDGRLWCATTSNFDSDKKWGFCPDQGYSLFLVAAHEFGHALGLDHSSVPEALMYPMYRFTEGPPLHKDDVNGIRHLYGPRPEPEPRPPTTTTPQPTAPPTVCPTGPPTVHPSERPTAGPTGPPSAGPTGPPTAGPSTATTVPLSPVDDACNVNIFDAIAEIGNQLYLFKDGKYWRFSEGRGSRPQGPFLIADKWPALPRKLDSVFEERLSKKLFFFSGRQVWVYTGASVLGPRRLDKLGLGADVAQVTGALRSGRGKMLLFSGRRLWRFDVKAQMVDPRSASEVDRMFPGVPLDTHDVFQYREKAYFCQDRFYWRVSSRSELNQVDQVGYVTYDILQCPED

As for `O=c1c(Cc2ccccc2)nc2ccccc2n1Cc1nnc(S)n1-c1ccccc1`, the pIC50 with HCT-116 [1] was 7.70; in the experiment on Epithelial cell, 8.11.

Molecule `COc1cc(/C=N/NC(N)=S)ccc1O` had a negative logarithm of the IC50 (pIC50) in experiment [2] of 6.98.

Regarding `O=c1c(Cc2ccccc2)nc2ccccc2n1CC(O)CO` (configuration not stated), the pIC50 in experiment [2] was 8.03; in experiment [4], 7.96; in experiment [5], 7.62; in the experiment with HCT-116 [1] it was 8.05; in the experiment on Epithelial cell it was 7.31. Further, in experiment [3], the “fold change (FC)” value is more than 5. Moreover, the “Selectivity Index” value in experiment [6] came out at 5.52; in the experiment listed under Homo sapiens, 0.921. Besides, the result with HCT-116 [7] was Active. Moreover, in the experiment on HCT-116 [8], the “inhibition (INH)” value is listed as 27.48%.

For `O=c1c(Cc2ccccc2)nc2ccccc2n1Cc1nnco1`, the results for the pIC50 in the experiment with HCT-116 [1] and in the experiment on Epithelial cell were 7.34 and 8.01, respectively.

`CC(C)(C)OC(=O)C(Cc1ccccc1)NC(=O)Cn1c(=O)c(Cc2ccccc2)nc2ccccc21` (configuration not stated): the pIC50 in [5] is 7.82; in the experiment with HCT-116 [1], 7.65; in the experiment on Epithelial cell it was 7.58. In addition, the “Selectivity Index” value in experiment [6] was 1.172.

The molecule `CNC(=O)C(Cc1ccccc1)NC(=O)C(CC(C)C)SC1CCCC1S` (configuration not stated) gave a negative logarithm of the IC50 (pIC50) in experiment [2] of 9.24.

As for `O=C1CC(=O)N(C(=O)Cn2c(=O)c(Cc3ccccc3)nc3ccccc32)N1`, the values for the negative logarithm of the IC50 (pIC50) in the experiment on HCT-116 [1] and in the experiment with Epithelial cell were 4.79 and 8.05, respectively. Moreover, the “Selectivity Index” value in [6] was found to be 0.553.

For the molecule `Nn1c(S)nnc1Cn1c(=O)c(Cc2ccccc2)nc2ccccc21`, the negative logarithm of the IC50 (pIC50) with HCT-116 [1] is 7.44; in the experiment on Epithelial cell, 8.27. In addition, the “Selectivity Index” value in [6] turned out to be 0.15.

On to `Cc1ccc(C(=O)NNC(=O)Cn2c(=O)c(Cc3ccccc3)nc3ccccc32)cc1`, for which the negative logarithm of the IC50 (pIC50) was 7.64 in experiment [2]; 7.54 in experiment [4]; 8.27 in experiment [5]; 8.12 in the experiment on HCT-116 [1]; 7.30 in the experiment with Epithelial cell. The “fold change (FC)” value in experiment [3] is on record as more than 15.94. The “Selectivity Index” value in [6] stood at 6.51; in the experiment listed under Homo sapiens it was 1.88. In addition, the outcome with HCT-116 [7] was Active. The “inhibition (INH)” value in the experiment on HCT-116 [8] is given as 73.32%.

As for `NC(=S)NNC(=O)Cn1c(=O)c(Cc2ccccc2)nc2ccccc21`, the pIC50 was 8.29 in [2]; 8.15 in experiment [4]; 7.98 in experiment [5]; 8.25 in the experiment with HCT-116 [1]; 7.27 in the experiment with Epithelial cell. The “fold change (FC)” value in experiment [3] is listed as more than 11.02. Also, the “Selectivity Index” value is 9.648 in experiment [6] and 1.33 in the experiment filed under Homo sapiens. Further, the “inhibition (INH)” value with HCT-116 [8] was determined as 61.29%.

On to `O=C(Cn1c(=O)c(Cc2ccccc2)nc2ccccc21)N/N=C/c1ccccc1O`, for which the pIC50 in the experiment on HCT-116 [1] was 4.79; in the experiment on Epithelial cell, 8.09. Moreover, the “Selectivity Index” value in experiment [6] was 0.508.

`CC(C)c1ccc(-n2nnc(-c3ccc(S(=O)(=O)NCC(=O)O)cc3)n2)cc1`: in experiment [2], the negative-log IC50 (pIC50) was 6.96.

Regarding `C#CCN(C)CCCOc1ccc(Cl)cc1Cl` [CLORGILINE], in experiment [5], the IC50 result is “Not Active”.

On to `NNC(=O)Cn1c(=O)c(Cc2ccccc2)nc2ccccc21`, for which the pIC50 in the experiment on HCT-116 [1] is 7.83; in the experiment with Epithelial cell it was 7.98. Moreover, the “Selectivity Index” value in experiment [6] is 0.729.

Consider `CCOC(=O)NNC(=O)Cn1c(=O)c(Cc2ccccc2)nc2ccccc21`, for which the negative-log IC50 (pIC50) in experiment [2] was 8.35; in experiment [4], 7.95; in [5], 7.92; in the experiment on HCT-116 [1] it was 8.13; in the experiment with Epithelial cell, 7.41. Further, the “fold change (FC)” value in experiment [3] was more than 5. Besides, the “Selectivity Index” value in experiment [6] amounted to 5.266; in the experiment listed under Homo sapiens, 2.07. In addition, in the experiment on HCT-116 [7], the outcome was Active. Also, in the experiment with HCT-116 [8], the “inhibition (INH)” value turned out to be 28.82%.

For the molecule `C(=N\NC1Nc2ccccc2N=C1Cc1ccccc1)/c1ccccc1` (configuration not stated), in experiment [5], the pIC50 was 7.09.

Consider `O=C(Cn1c(=O)c(Cc2ccccc2)nc2ccccc21)NN=c1c(=O)c2ccccc2c1=O`, for which the negative logarithm of the IC50 (pIC50) in the experiment with HCT-116 [1] is 7.73; in the experiment on Epithelial cell it was 8.10. The “Selectivity Index” value in experiment [6] is 0.435.

For `O=c1c(Cc2ccccc2)nc2ccccc2n1Cc1nnc(S)o1`, the values for the pIC50 with HCT-116 [1] and with Epithelial cell were 7.97 and 8.28, respectively. Also, the “Selectivity Index” value in [6] was 0.512.

On to `O=C(Cn1c(=O)c(Cc2ccccc2)nc2ccccc21)OCCNCCO`, for which the pIC50 in the experiment with HCT-116 [1] was 7.78; in the experiment with Epithelial cell, 8.30.

Turning to `N=C(N)NS(=O)(=O)c1ccc(NC(=O)Cn2c(=O)c(Cc3ccccc3)nc3ccccc32)cc1`, the negative-log IC50 (pIC50) with HCT-116 [1] was 7.89; with Epithelial cell, 8.05. Further, the “Selectivity Index” value in experiment [6] stood at 0.695.

Turning to `c1ccc(Cc2nc3ccccc3n3cnnc23)cc1`, the pIC50 in experiment [5] was 9.15.

Consider `O=c1c(Cc2ccccc2)nc2ccccc2n1CC(O)CCl` (configuration not stated), for which the pIC50 is 7.73 in the experiment with HCT-116 [1] and 7.79 with Epithelial cell. The “Selectivity Index” value in experiment [6] was 0.954.

`COc1cccc2c1C(=O)c1c(O)c3c(c(O)c1C2=O)C[C@@](O)(C(=O)CO)C[C@@H]3O[C@H]1C[C@H](N)[C@H](O)[C@H](C)O1` [DOXORUBICIN]: the values for the negative logarithm of the IC50 (pIC50) in the experiment on HCT-116 [1] and with Epithelial cell were 6.12 and 8.01, respectively. For the same molecule, the “Selectivity Index” value in [6] was 0.013.

For the molecule `CCOC(=O)Cn1c(=O)c(Cc2ccccc2)nc2ccccc21`, the pIC50 in the experiment on HCT-116 [1] is 7.74; in the experiment with Epithelial cell, 7.99. Also, the “Selectivity Index” value in [6] is 0.559.

In the case of `O=c1c(O)c(-c2ccc(O)c(O)c2)oc2cc(O)cc(O)c12` [QUERCETIN], the negative-log IC50 (pIC50) in [2] was 6.76.

On to `O=C(CSc1nnc(-c2ccccc2)o1)NCc1ccc2c(c1)OCO2`, for which the inhibition in experiment [9] turned out to be 30.5%.

For the molecule `Nn1c(Cn2c(=O)c(Cc3ccccc3)nc3ccccc32)nnc1Cn1c(=O)c(Cc2ccccc2)nc2ccccc21`, the pIC50 is 7.83 in the experiment with HCT-116 [1] and 8.22 in the experiment on Epithelial cell. The “Selectivity Index” value in [6] is 0.405.

Turning to `O=C(Cn1c(=O)c(Cc2ccccc2)nc2ccccc21)NNC(=S)Nc1ccccc1`, the pIC50 was 8.08 in experiment [2]; 8.17 in [4]; 8.27 in [5]; 8.23 with HCT-116 [1]; 7.79 in the experiment with Epithelial cell. Moreover, in experiment [3], the “fold change (FC)” value was more than 5. For the same molecule, the figures for the “Selectivity Index” value (in experiment [6]; in the experiment listed under Homo sapiens) were 2.751 and 0.649, respectively. Moreover, in the experiment on HCT-116 [8], the “inhibition (INH)” value came to 21.27%.

With `O=C(O)Cn1c(=O)c(Cc2ccccc2)nc2ccccc21`, the figures for the pIC50 in the experiment on HCT-116 [1] and in the experiment on Epithelial cell were 7.80 and 4.87, respectively. The “Selectivity Index” value in experiment [6] worked out at 0.844.
